Here are results for 4 compounds from BindingDB's records for doi:10.1021/acs.jnatprod.5b00540 (Toyama Prefectural University, 2015).

The assay has as its target T1, Accessory gene regulator protein A (Staphylococcus aureus, UniProt P0A0I7).
T1 sequence (P0A0I7 whole entry): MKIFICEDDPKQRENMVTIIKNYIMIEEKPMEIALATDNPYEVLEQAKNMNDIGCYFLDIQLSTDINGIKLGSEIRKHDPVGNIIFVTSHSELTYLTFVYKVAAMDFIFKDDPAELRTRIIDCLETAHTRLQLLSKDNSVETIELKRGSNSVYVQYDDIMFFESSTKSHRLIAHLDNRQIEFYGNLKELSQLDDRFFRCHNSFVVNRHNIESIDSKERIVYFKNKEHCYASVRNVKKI
The assay is described as follows: Inhibition of agr-mediated quorum sensing in Staphylococcus aureus after 5 hrs by luminescence analysis.

SMILES strings stand for the structures. Numbered stars: 1 amine (or outer) side, 2 acyl side, 3 side chain; on linkers, the order of the positions; unused ones are H or OH. Bridge positions count the residues as written; N and C are the ends. Square brackets hold non-standard residues; d marks the D form. Peptide text beside a SMILES is read from it. * marks the point of attachment. Cinnamoyl(2-(1Z-pentenyl)) = CCC/C=C\c1ccccc1/C=C/C(=O)*; X1 = CN(/C(=C/c1ccc(O)cc1)C(=O)[*:2])[*:1]; aThr = C[C@H](O)[C@H](N)C(=O)O

Compound `CC(C)[C@@H]1NC(=O)C[C@H](/C=C/c2ccccc2)OC(=O)[C@H](C(C)C)NC(=O)[C@H](C(C)C)NC(=O)[C@@H](C)NC1=O` yielded an IC50 of 300 nM. This counts as sub-micromolar. The same measure for `C[C@H]1NC(=O)[C@@H](Cc2ccccc2)N(C)C(=O)[C@@H]2CCCN2C(=O)c2ccccc2NC(=O)[C@H](Cc2ccccc2)NC1=O`: 4400 nM; for `CCC/C=C\c1ccccc1/C=C/C(=O)N[C@@H]1C(=O)N(C)/C(=C/c2ccc(O)cc2)C(=O)N[C@@H](CC(C)C)C(=O)N[C@H](Cc2ccccc2)C(=O)N[C@@H]([C@H](C)O)C(=O)N[C@@H](CC(N)=O)C(=O)N[C@@H](CO)C(=O)O[C@@H]1C` ({Cinnamoyl(2-(1Z-pentenyl))}-T[X1]L[dF][aThr]NS; ester 1-C): 2500 nM; for `CC[C@H](C)[C@@H]1NC(=O)[C@@H](C)NC(=O)[C@H](C(C)C)NC(=O)C[C@H](/C=C/c2ccccc2)OC(=O)[C@H](C(C)C)NC1=O` [CHEBI:67522]: 800 nM.

The IC50 is the point on the concentration scale where inhibition reaches its midpoint.
